Assay results reported in publication PMC6407592, “Novel Re(I) tricarbonyl coordination compounds based on 2-pyridyl-1,2,3-triazole derivatives bearing a 4-amino-substituted benzenesulfonamide arm: synthesis, crystal structure, computational studies and inhibitory activity against carbonic anhydrase I, II, and IX isoforms†” (Journal of Enzyme Inhibition and Medicinal Chemistry, 2019).

How the values were obtained:
hCA I = hCA I (Homo sapiens, UniProt P00915); test: stopped-flow CO2 hydrase assay, hCA I
Chain of hCA I (P00915 whole entry): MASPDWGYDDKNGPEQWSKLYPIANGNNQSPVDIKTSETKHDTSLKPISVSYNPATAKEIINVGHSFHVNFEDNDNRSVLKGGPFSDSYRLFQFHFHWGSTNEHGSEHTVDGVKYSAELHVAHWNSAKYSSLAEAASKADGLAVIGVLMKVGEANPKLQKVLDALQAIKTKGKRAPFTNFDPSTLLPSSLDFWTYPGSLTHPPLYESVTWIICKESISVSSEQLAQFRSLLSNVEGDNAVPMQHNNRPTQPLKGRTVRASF
Description: (§1) An Applied Photophysics stopped-flow instrument was used for assaying the CA catalysed CO2 hydration activity. […] In particular, CO2 was bubbled in distilled deionised water for 30 min so that the water was saturated (the concentration at a specific temperature is known from literature). In addition, a CO2 assay kit (from Sigma) was used to measure the concentration in variously diluted solutions obtained from the saturated one (which was kept at the same temperature and a constant bubbling during the experiments). […] The uncatalysed rates were determined in the same manner and subtracted from the total observed rates. Stock solutions of inhibitor (0.1 mM) were prepared in distilled-deionised water and dilutions up to 0.01 nM were done thereafter with distilled-deionised water. Inhibitor and enzyme solutions were pre-incubated together for 15 min–2 h (or longer, i.e. 4–6 h) at room temperature (at 4 °C for the incubation periods longer than 15 min) prior to assay, in order to allow for the formation of the E-I complex. […]

hCA II = hCA II (Homo sapiens, UniProt P00918); test: stopped-flow CO2 hydrase assay, hCA II
Description: as §1

hCA IX = hCA IX (Homo sapiens, UniProt Q16790); test: stopped-flow CO2 hydrase assay, hCA IX
Description: An Applied Photophysics stopped-flow instrument was used for assaying the CA catalysed CO2 hydration activity. […] In particular, CO2 was bubbled in distilled deionised water for 30 min so that the water was saturated (the concentration at a specific temperature is known from literature). In addition, a CO2 assay kit (from Sigma) was used to measure the concentration in variously diluted solutions obtained from the saturated one (which was kept at the same temperature and a constant bubbling during the experiments). […] The uncatalysed rates were determined in the same manner and subtracted from the total observed rates. Stock solutions of inhibitor (0.1 mM) were prepared in distilled-deionised water and dilutions up to 0.01 nM were done thereafter with distilled-deionised water. Inhibitor and enzyme solutions were pre-incubated together for 15 min–2 h (or longer, i.e. 4–6 h) at room temperature (at 4 °C for the incubation periods longer than 15 min) prior to assay, in order to allow for the formation of the E-I complex. The inhibition constants were obtained by non-linear least-squares methods using PRISM 3 and the Cheng-Prusoff equation[25] ^, [26], as reported earlier, and represent the mean from at least three different determinations. hCA I was purchased by Sigma-Aldrich and used without further purification, whereas all the other hCA isoforms were recombinant ones obtained in-house as reported earlier[27] ^, [28].

Structure (SMILES)	melting point [°C]	Ki (hCA I) [nM]	Ki (hCA II) [nM]	Ki (hCA IX) [nM]	Selectivity ratio I/IX (hCA IX; KI hCA I / KI hCA IX)	Selectivity ratio II/IX (hCA IX; KI hCA II / KI hCA IX)	fold higher affinity than its rhenium complex 4a (hCA IX; hCA IX, Ki(3a) vs Ki(4a)) [fold]
NS(=O)(=O)c1ccc(-n2cc(-c3ccccn3)nn2)cc1 [3a, 4-(4–(2-pyridyl)-1H-1,2,3-triazol-1-yl)-benzenesulfonamide]	244 to 248	181	4.1	2.8	64.75	1.46	7
NS(=O)(=O)c1ccc(Cn2cc(-c3ccccn3)nn2)cc1 [3b, 4–(4-(2-pyridyl)-1H-1,2,3-triazol-1-ylmethyl)-benzenesulfonamide]	192 to 195	305	56.1	–	–	–	–
